Drawing on PubChem BioAssay AID328 (DTP/NCI, 2004), this text covers T/C for 22 compounds.

Inconclusive results and toxic doses are left out.

The subject of this test is BDF1 mice, P388 leukemia ip, median survival T/C. Put plainly: NCI In Vivo Anticancer Drug Screen. Data for tumor model P388 Leukemia (intraperitoneal) in B6D2F1 (BDF1) mice. As to conditions: endpoint: median survival time, higher = longer survival. In outline: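 Survival ratio, drug arm over vehicle arm, in mice with a transplanted tumour.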
The mark [1] stands for this setting: dose: 100.0 mg/kg/injection, schedule: Q01DX009 (ip), vehicle: Klucel (hydroxypropylcellulose) (HPC).
[2] abbreviates: dose: 100.0 mg/kg/injection, schedule: Q04DX003 (ip), vehicle: Klucel (hydroxypropylcellulose) (HPC).
[3] abbreviates: dose: 200.0 mg/kg/injection, schedule: Q01DX009 (ip), vehicle: Klucel (hydroxypropylcellulose) (HPC).
Setting [4] is: dose: 200.0 mg/kg/injection, schedule: Q04DX003 (ip), vehicle: Klucel (hydroxypropylcellulose) (HPC).
Where [5] appears, read: dose: 400.0 mg/kg/injection, schedule: Q01DX009 (ip), vehicle: Klucel (hydroxypropylcellulose) (HPC).
[6] abbreviates: dose: 50.0 mg/kg/injection, schedule: Q01DX009 (ip), vehicle: saline.
Setting [7] is: dose: 100.0 mg/kg/injection, schedule: Q04DX003 (ip), vehicle: saline.
Where [8] appears, read: dose: 200.0 mg/kg/injection, schedule: Q04DX003 (ip), vehicle: saline.
[9] abbreviates: dose: 100.0 mg/kg/injection, schedule: Q01DX009 (ip), vehicle: saline with Tween-80.
The mark [10] stands for this setting: dose: 200.0 mg/kg/injection, schedule: Q01DX009 (ip), vehicle: saline with Tween-80.
Setting [11] is: dose: 50.0 mg/kg/injection, schedule: Q01DX009 (ip), vehicle: saline with Tween-80.
The mark [12] stands for this setting: dose: 25.0 mg/kg/injection, schedule: Q04DX003 (ip), vehicle: saline with Tween-80.
Where [13] appears, read: dose: 50.0 mg/kg/injection, schedule: Q04DX003 (ip), vehicle: saline with Tween-80.
Setting [14] is: dose: 100.0 mg/kg/injection, schedule: Q04DX003 (ip), vehicle: saline with Tween-80.
Setting [15] is: dose: 50.0 mg/kg/injection, schedule: Q04DX003 (ip), vehicle: saline.
Where [16] appears, read: dose: 200.0 mg/kg/injection, schedule: Q04DX003 (ip), vehicle: saline with Tween-80.
Setting [17] is: dose: 400.0 mg/kg/injection, schedule: Q04DX003 (ip), vehicle: saline with Tween-80.
Where [18] appears, read: dose: 25.0 mg/kg/injection, schedule: Q04DX003 (ip), vehicle: saline.

With `O=C1c2ccccc2C(=O)c2c(NCCOCCO)ccc(NCCOCCO)c21`, the T/C (dose: 25.0 mg/kg/injection, schedule: Q01DX005 (ip), vehicle: saline with Tween-80) is 98 % of control; the T/C (dose: 50.0 mg/kg/injection, schedule: Q01DX005 (ip), vehicle: saline with Tween-80) was 94 % of control; the T/C (dose: 100.0 mg/kg/injection, schedule: Q01DX005 (ip), vehicle: saline with Tween-80) was 90 % of control; the T/C (dose: 200.0 mg/kg/injection, schedule: Q01DX005 (ip), vehicle: saline with Tween-80) was 102 % of control.
Consider `CCN(CC)c1ccc([N+](=O)[O-])c2no[n+]([O-])c12`, for which the T/C was 91 % of control (dose: 35.0 mg/kg/injection, schedule: Q01DX009 (ip), vehicle: saline with Tween-80) and 94 % of control (dose: 70.0 mg/kg/injection, schedule: Q01DX009 (ip), vehicle: saline with Tween-80).
`COc1ccc2nc(NCN3C(=O)c4ccccc4C3=O)sc2c1`: the T/C is, setting by setting: (dose: 100.0 mg/kg/injection, schedule: Q01DX001 (ip), vehicle: Klucel (hydroxypropylcellulose) (HPC)) 104 % of control; under setting [1], 109 % of control; under setting [2], 100 % of control; (dose: 200.0 mg/kg/injection, schedule: Q01DX001 (ip), vehicle: Klucel (hydroxypropylcellulose) (HPC)) 100 % of control; under setting [3], 104 % of control; under setting [4], 100 % of control. For the same compound, the T/C (dose: 400.0 mg/kg/injection, schedule: Q01DX001 (ip), vehicle: Klucel (hydroxypropylcellulose) (HPC)) is 95 % of control; the T/C under setting [5] was 104 % of control; the T/C (dose: 400.0 mg/kg/injection, schedule: Q04DX003 (ip), vehicle: Klucel (hydroxypropylcellulose) (HPC)) is 100 % of control.
For `O=C(O)CCCC1CCC(=O)CC1`, the T/C runs as follows: under setting [6], 90 % of control; (dose: 100.0 mg/kg/injection, schedule: Q01DX001 (ip), vehicle: other) 95 % of control; (dose: 100.0 mg/kg/injection, schedule: Q01DX009 (ip), vehicle: saline) 90 % of control; under setting [7], 104 % of control; (dose: 200.0 mg/kg/injection, schedule: Q01DX001 (ip), vehicle: other) 104 % of control; (dose: 200.0 mg/kg/injection, schedule: Q01DX009 (ip), vehicle: saline) 110 % of control. The T/C under setting [8] is 104 % of control; the T/C (dose: 400.0 mg/kg/injection, schedule: Q01DX001 (ip), vehicle: other) is 120 % of control; the T/C (dose: 400.0 mg/kg/injection, schedule: Q01DX009 (ip), vehicle: saline) is 110 % of control; the T/C (dose: 400.0 mg/kg/injection, schedule: Q04DX003 (ip), vehicle: saline) is 109 % of control.
In the case of `Cc1ccc(C2(C#N)CCCC2)cc1`, the T/C is, setting by setting: under setting [9], 104 % of control; under setting [10], 113 % of control.
On to `Nc1nc(N)c2cc(Sc3cccc(C(F)(F)F)c3)ccc2n1`, for which the T/C under setting [11] was 113 % of control.
In the case of `CCCCn1nnc2c(NN)nc(N)nc21`, the T/C is 100 % of control (dose: 25.0 mg/kg/injection, schedule: Q01DX009 (ip), vehicle: saline with Tween-80); 100 % of control under setting [12]; 100 % of control under setting [11]; 100 % of control under setting [13]; 100 % of control under setting [14].
`CS(=O)(=O)OCCC(=O)N1CCN(C(=O)CCOS(C)(=O)=O)CC1`: the T/C runs as follows: (dose: 11.2 mg/kg/injection, schedule: Q01DX010 (ip), vehicle: saline) 150 % of control; (dose: 22.5 mg/kg/injection, schedule: Q01DX010 (ip), vehicle: saline) 163 % of control; (dose: 45.0 mg/kg/injection, schedule: Q01DX010 (ip), vehicle: saline) 150 % of control; (dose: 90.0 mg/kg/injection, schedule: Q01DX010 (ip), vehicle: saline) 250 % of control.
As for `COc1ccc(C)cc1NN`, the T/C is 100 % of control (dose: 12.5 mg/kg/injection, schedule: Q01DX009 (ip), vehicle: saline); 100 % of control under setting [6]; 109 % of control under setting [15]; 104 % of control under setting [7]; 95 % of control under setting [8].
Turning to `CN(C)c1ccc(/C=C\c2ccnc3ccc(-c4ccccc4)cc23)cc1`, the T/C is, setting by setting: under setting [11], 94 % of control; under setting [9], 94 % of control; under setting [10], 94 % of control.
In the case of `CCC(O)(CC(=O)O)c1ccccc1` (configuration not stated), the T/C runs as follows: under setting [14], 95 % of control; under setting [16], 90 % of control; under setting [17], 90 % of control.
With `C=CC1CCCCC1C=C` (configuration not stated), the T/C (dose: 25.0 mg/kg/injection, schedule: Q01DX009 (ip), vehicle: saline) is 107 % of control and the T/C under setting [6] is 88 % of control.
With `CN(C)c1ccc(C(C#N)(c2ccc(N(C)C)cc2)c2ccc(N(C)C)cc2)cc1`, the T/C is, setting by setting: (dose: 50.0 mg/kg/injection, schedule: Q04DX003 (ip), vehicle: Klucel (hydroxypropylcellulose) (HPC)) 100 % of control; under setting [2], 100 % of control; under setting [4], 95 % of control.
Take `O=CC(Cl)Cl`: the T/C under setting [18] is 100 % of control, the T/C under setting [15] was 95 % of control and the T/C under setting [7] is 100 % of control.
Take `COc1ccccc1NC(=O)Oc1ccc(OCc2ccccc2)cc1`: the T/C is 95 % of control under setting [14], 87 % of control under setting [16] and 100 % of control under setting [17].
Turning to `CN1CCC(OC(=O)c2ccc3c(c2)OCO3)CC1`, the T/C is 100 % of control (dose: 12.5 mg/kg/injection, schedule: Q04DX003 (ip), vehicle: saline with Tween-80); 117 % of control under setting [12]; 91 % of control under setting [13].
As to `COc1ccc2c(c1O)-c1cccc3c1[C@@H](C2)N(CCCl)CC3`, the T/C reads like this: under setting [12], 161 % of control; under setting [13], 161 % of control.
For the compound `Cc1cc(C)c[n+](C2=C([O-])C(=O)C([n+]3cc(C)cc(C)c3)=C([O-])C2=O)c1`, the T/C reads like this: under setting [11], 97 % of control; under setting [9], 97 % of control; under setting [10], 95 % of control.
Turning to `N#C[C@@H]1C2C=CC(CC2)[C@H]1C#N`, the T/C was 95 % of control (dose: 0.29 mg/kg/injection, schedule: Q04DX003 (ip), vehicle: saline); 120 % of control (dose: 0.44 mg/kg/injection, schedule: Q04DX003 (ip), vehicle: saline); 100 % of control (dose: 0.66 mg/kg/injection, schedule: Q04DX003 (ip), vehicle: saline); 115 % of control (dose: 1.0 mg/kg/injection, schedule: Q04DX003 (ip), vehicle: saline); 100 % of control (dose: 1.5 mg/kg/injection, schedule: Q04DX003 (ip), vehicle: saline); 100 % of control (dose: 5.0 mg/kg/injection, schedule: Q04DX003 (ip), vehicle: saline with Tween-80).
Take `CC1(C)CN(C(C)(C)C)CC(C)(C)C(=O)C1=O`: the T/C reads like this: (dose: 12.5 mg/kg/injection, schedule: Q04DX003 (ip), vehicle: saline) 90 % of control; under setting [18], 95 % of control; under setting [15], 95 % of control.
In the case of `C=Cc1c(C)c(O)cc2c1CC[C@@H]1C(C)(C)[C@H](O)[C@H](O)C[C@@]21C`, the T/C under setting [1] was 102 % of control, the T/C under setting [3] is 100 % of control and the T/C under setting [5] is 113 % of control.
With `CS(=O)(=O)n1c(CBr)nc2ccccc21`, the T/C was 109 % of control (dose: 25.0 mg/kg/injection, schedule: Q04DX003 (ip), vehicle: saline sonified); 118 % of control (dose: 50.0 mg/kg/injection, schedule: Q04DX003 (ip), vehicle: saline sonified); 122 % of control (dose: 100.0 mg/kg/injection, schedule: Q04DX003 (ip), vehicle: saline sonified).
